From patent US8273752B2, “Substituted imidazopyrimidines and triazolopyrimidines” (Bayer Intellectual Property GmbH, priority 2007, dated 2012)

target: T1, GSK3β (Homo sapiens, UniProt P49841); test: GSK3β biochemical in vitro assay (fluorescence, NADH-coupled); conditions: 5 nM GSK3β, 40 μM substrate GSM, 50 μM ATP, 30° C., 2 hours
T1 construct: purchased Upstate xy
Experimental: The inhibitory activity of active substances is determined in a biochemical assay. The ingredients required for this purpose are mixed in a black 384-well microtitre plate with transparent base (from Greiner, catalogue number 781092). The requirements in this connection for each well of the 384-well microtitre plate are 5 nM GSK3β (from Upstate, catalogue number xy), 40 μM GSK3B substrate GSM (sequence H-RRRPASVPPSPSLSRHS-(pS)-HQRR, from Upstate, catalogue number 2-533), 30 μM nicotinamide adenine dinucleotide NADH (Roche Diagnostics, catalogue number 10107735), 50 μM adenosine triphosphate ATP (from Sigma, catalogue number A7966), and 2 mM phosphoenolpyruvate (from Roche, catalogue number 128112). The required reaction buffer in which the biochemical reaction takes place consists of 50 mM Trizma hydrochloride tris-HCl pH: 7.5 (from Sigma, catalogue number T3253), 5 mM magnesium chloride MgCl2 (from Sigma, catalogue number M8266), 0.2 mM DL-dithiothreitol DTT (from Sigma, catalogue number D9779), 2 mM ethylenediaminethertetraacid EDTA (from Sigma, catalogue number E6758), 0.01% Triton X-100 (from Sigma, catalogue number T8787) and 0.05% bovine serum albumin BSA (from Sigma, catalogue number B4287).
Active substances are dissolved in dimethyl sulphoxide DMSO (from Sigma, catalogue number D8418) in a concentration of 10 mM. Active substances are added in serial concentrations of 10 μM, 1 μM, 0.1 μM, 0.01 μM, 0.001 μM, 0.0001 μM, 0.00001 μM, 0.000001 μM to the mixtures of the biochemical reaction. As control, dimethyl sulphoxide is added instead of substance in a final concentration of 0.1%.
The reaction is incubated at 30° C. for 2 hours and then the resulting fluorescence is measured in a Tecan Safire-XFLUOR4 instrument, version V4.50 (serial number 12901300283) with the specifications: measurement mode—fluorescence measured from below, extinction wavelength 340 nm, emission wavelength 465 nm, slit width extinction 5 nm, slit width emission 5 nm, gain mode 120, delay 0 μs, number of light flashes per measurement 3, and an integration time of 40 μs.
The activity of the active substances is calculated in relation to these 0% and 100%.

T1 sequence (P49841 whole entry, species assumed): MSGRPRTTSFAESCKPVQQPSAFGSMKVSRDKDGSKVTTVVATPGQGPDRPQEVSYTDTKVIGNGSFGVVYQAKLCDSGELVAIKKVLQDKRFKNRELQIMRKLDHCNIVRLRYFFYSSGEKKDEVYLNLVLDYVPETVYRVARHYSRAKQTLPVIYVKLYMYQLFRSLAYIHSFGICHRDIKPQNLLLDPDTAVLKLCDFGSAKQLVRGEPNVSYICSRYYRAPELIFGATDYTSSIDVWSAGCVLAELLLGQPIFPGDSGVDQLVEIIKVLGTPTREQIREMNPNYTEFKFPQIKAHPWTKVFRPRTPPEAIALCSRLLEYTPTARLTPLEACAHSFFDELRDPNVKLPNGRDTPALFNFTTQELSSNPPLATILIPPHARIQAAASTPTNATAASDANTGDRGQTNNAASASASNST

IC50	SMILES
188 nM	CCCCc1ccc(-c2cc3nccn3c(NCCNc3ccc([N+](=O)[O-])c(N)n3)n2)cc1 [Example 65]
89 nM	CN1CCN(C(=O)c2cn3c(NCCNc4ccc(C#N)cn4)nc(-c4ccc(Cl)cc4Cl)cc3n2)CC1 [Example 111]
5 nM	N#Cc1ccc(NCCNc2nc(-c3ccc(Cl)cc3Cl)cc3nc(C(=O)NCC(=O)O)cn23)nc1 [Example 115]
